Reference: patent US11981686B2, “Urea compound having substituent” (DAIICHI SANKYO COMPANY, LIMITED, priority 2019, dated 2024)

Target: SIRT6 enzyme (Homo sapiens, UniProt Q8N6T7)
Experiment: Measurement of deacetylation activity (SIRT6, AlphaLISA, H3K9(Ac) peptide)
Format: biochemical
Settings: SIRT6 25 ng/mL, H3K9(Ac) biotin peptide 2 nM, NAD 10 μM, room temperature 30 minutes, duplicate
Method: The reaction was performed in duplicate using a white 384-well plate (3824, Corning or 6008350, PerkinElmer) at a final reaction liquid volume of 20.1 μL. As a control for calculating the enzyme activity, the enzyme-added (DMSO (+)) and enzyme-free (DMSO (−)) wells were set at n=8. Test substances (examples of final concentrations: 0.046, 0.14, 0.41, 1.2, 3.7, 11, 33, and 100 μM) at a concentration of 100 times or 0.1 μL of DMSO was dispensed into the plate and 5 μL of SIRT6 enzyme (prepared by Daiichi Sankyo RD Novare Co., Ltd., final concentration: 25 ng/mL) diluted with an assay buffer (10 mM Tris-HCl pH of 8.0, 0.1% BSA, 0.01% Tween 20, 1 mM DTT, 12.5% Glycerol) was added thereto. The enzymatic reaction was started by adding 5 μL of a mixed solution [Lys(Ac)9]-Histone H3 (1-21)-NH2, H3K9 (Ac), biotin-labeled, amide (AnaSpec, AS-64190, final concentration: 2 nM) and β-nicotinamide adenine dinucleotide (Sigma-Aldrich, N8285-15VL, final concentration: 10 μM), and the reaction was performed at room temperature for 30 minutes. 10 μL of a mixed solution of nicotinamide (Sigma-Aldrich, 72340-100G, final concentration: 100 mM) prepared with AlphaLISA Epigenetics Buffer (PerkinElmer, AL008C), AlphaLISA Anti-unmodified Histone H3 Lysine 9/Lysine 27 (H3K9/K27) Acceptor Beads (PerkinElmer, AL138, final concentration: 10 μg/mL), and AlphaScreen Streptavidin Donor beads (PerkinElmer, 6760002, final concentration: 5 μg/mL) was added thereto, the reaction was performed at room temperature for 60 minutes and then stopped, and acetylation was detected. The emission intensity was measured by EnVision (PerkinElmer).
The relative enzyme activity (%) of the test substance was calculated by the following equation. Relative enzyme activity (%)=[(emission intensity of test substance-added well−emission intensity of DMSO (−) well)/(emission intensity of DMSO (+) well−emission intensity of DMSO (−) well)]×100
The EC150 (the concentration of the compound showing a relative enzyme activity of 150%) of the test substance was calculated based on Sigmoidal dose-response (variable slope) of GraphPad Prism (GraphPad Software) using the value of the relative enzyme activity (%) at each concentration, and the results are listed in Tables 1-1 to 1-5.

Sequence of SIRT6 enzyme (Q8N6T7 whole entry, species assumed): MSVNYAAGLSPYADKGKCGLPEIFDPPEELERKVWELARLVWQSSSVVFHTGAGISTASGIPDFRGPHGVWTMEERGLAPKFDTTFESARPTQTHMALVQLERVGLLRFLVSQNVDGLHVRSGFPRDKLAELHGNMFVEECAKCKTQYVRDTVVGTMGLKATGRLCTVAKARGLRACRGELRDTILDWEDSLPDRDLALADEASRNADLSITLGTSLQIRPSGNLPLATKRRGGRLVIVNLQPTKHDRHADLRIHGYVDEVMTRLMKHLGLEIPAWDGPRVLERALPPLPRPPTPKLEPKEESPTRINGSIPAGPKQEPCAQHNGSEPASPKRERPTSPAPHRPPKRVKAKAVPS

SMILES	EC150 (the concentration of the compound showing a relative enzyme activity of 150%)
COc1cc2nc(N3[C@@H]4COC[C@H]3c3sc(NC(=O)NCC(C)(C)O)nc3C4)oc2cc1C [Example 44, N-(2-hydroxy-2-methylpropyl)-N′-[(4S,8S)-10-(5-methoxy-6-methyl-1,3-benzoxazol-2-yl)-4,7,8,9-tetrahydro-5H-4,8-epiminooxocino[5,4-d][1,3]thiazol-2-yl]urea]	2.3 μm
COc1cc2nc(N3[C@@H]4COC[C@H]3c3sc(NC(=O)N[C@@H]5CCOC5)nc3C4)oc2cc1C [Example 45, N-[(4S,8S)-10-(5-methoxy-6-methyl-1,3-benzoxazol-2-yl)-4,7,8,9-tetrahydro-5H-4,8-epiminooxocino[5,4-d][1,3]thiazol-2-yl]-N′-[(3R)-oxolan-3-yl]urea]	0.79 μm
COc1ccc2oc(N3[C@@H]4COC[C@H]3c3sc(NC(=O)NCC(C)(C)O)nc3C4)nc2c1 [Example 46, N-(2-hydroxy-2-methylpropyl)-N′-[(4S,8S)-10-(5-methoxy-1,3-benzoxazol-2-yl)-4,7,8,9-tetrahydro-5H-4,8-epiminooxocino[5,4-d][1,3]thiazol-2-yl]urea]	2.1 μm
COc1ccc2oc(N3[C@@H]4COC[C@H]3c3sc(NC(=O)N[C@@H]5CCOC5)nc3C4)nc2c1 [Example 47, N-[(4S,8S)-10-(5-methoxy-1,3-benzoxazol-2-yl)-4,7,8,9-tetrahydro-5H-4,8-epiminooxocino[5,4-d][1,3]thiazol-2-yl]-N′-[(3R)-oxolan-3-yl]urea]	0.83 μm
CNC(=O)Nc1nc2c(s1)[C@@H]1COC[C@H](C2)N1c1nc2cc(OC)ccc2o1 [Example 48, N-[(4S,8S)-10-(5-methoxy-1,3-benzoxazol-2-yl)-4,7,8,9-tetrahydro-5H-4,8-epiminooxocino[5,4-d][1,3]thiazol-2-yl]-N′-methylurea]	1.2 μm
CNC(=O)Nc1nc2c(s1)[C@@H]1COC[C@H](C2)N1c1nc2cc(C)ccc2o1 [Example 49, N-methyl-N′-[(4S,8S)-10-(5-methyl-1,3-benzoxazol-2-yl)-4,7,8,9-tetrahydro-5H-4,8-epiminooxocino[5,4-d][1,3]thiazol-2-yl]urea]	1.5 μm
CC(C)NC(=O)Nc1nc2c(s1)[C@@H]1COC[C@H](C2)N1c1nc2cc(S(C)(=O)=O)ccc2o1 [Example 50, N-{(4S,8S)-10-[5-(methanesulfonyl)-1,3-benzoxazol-2-yl]-4,7,8,9-tetrahydro-5H-4,8-epiminooxocino[5,4-d][1,3]thiazol-2-yl}-N′-propan-2-ylurea]	1.5 μm
Cc1cc2nc(N3[C@@H]4COC[C@H]3c3sc(NC(=O)NCC(C)(C)O)nc3C4)oc2cc1C#N [Example 51, N-[(4S,8S)-10-(6-cyano-5-methyl-1,3-benzoxazol-2-yl)-4,7,8,9-tetrahydro-5H-4,8-epiminooxocino[5,4-d][1,3]thiazol-2-yl]-N′-(2-hydroxy-2-methylpropyl)urea]	0.47 μm
CCOc1ccc2oc(N3[C@@H]4COC[C@H]3c3sc(NC(=O)N[C@H](C)CO)nc3C4)nc2c1 [Example 52, N-[(4S,8S)-10-(5-ethoxy-1,3-benzoxazol-2-yl)-4,7,8,9-tetrahydro-5H-4,8-epiminooxocino[5,4-d][1,3]thiazol-2-yl]-N′-[(2R)-1-hydroxypropan-2-yl]urea]	1.9 μm
CC(C)(O)CNC(=O)Nc1nc2c(s1)[C@@H]1COC[C@H](C2)N1c1nc2cc(C(F)F)ccc2o1 [Example 53, N-{(4S,8S)-10-[5-(difluoromethyl)-1,3-benzoxazol-2-yl]-4,7,8,9-tetrahydro-5H-4,8-epiminooxocino[5,4-d][1,3]thiazol-2-yl}-N′-(2-hydroxy-2-methylpropyl)urea]	0.29 μm
O=C(Nc1nc2c(s1)[C@@H]1COC[C@H](C2)N1c1nc2cc(OC(F)(F)F)ccc2o1)N[C@H]1C[C@H](O)C1 [Example 54, N-[(1r,3S)-3-hydroxycyclobutyl]-N′-[(4S,8S)-10-(5-trifluoromethoxy-1,3-benzoxazol-2-yl)-4,7,8,9-tetrahydro-5H-4,8-epiminooxocino[5,4-d][1,3]thiazol-2-yl]urea]	0.48 μm
CC(C)(O)CNC(=O)Nc1nc2c(s1)[C@@H]1COC[C@H](C2)N1c1nc2cc(C#N)c(F)cc2o1 [Example 55, N-[(4S,8S)-10-(5-cyano-6-fluoro-1,3-benzoxazol-2-yl)-4,7,8,9-tetrahydro-5H-4,8-epiminooxocino[5,4-d][1,3]thiazol-2-yl]-N′-(2-hydroxy-2-methylpropyl)urea]	2.3 μm
C[C@H](CO)NC(=O)Nc1nc2c(s1)[C@@H]1COC[C@H](C2)N1c1nc2cc(C(F)F)ccc2o1 [Example 56, N-{(4S,8S)-10-[5-(difluoromethyl)-1,3-benzoxazol-2-yl]-4,7,8,9-tetrahydro-5H-4,8-epiminooxocino[5,4-d][1,3]thiazol-2-yl}-N′-[(2R)-1-hydroxypropan-2-yl]urea]	0.19 μm
CC(C)(O)CNC(=O)Nc1nc2c(s1)[C@@H]1COC[C@H](C2)N1c1nc2cc(OCF)ccc2o1 [Example 57, N-{(4S,8S)-10-[5-(fluoromethoxy)-1,3-benzoxazol-2-yl]-4,7,8,9-tetrahydro-5H-4,8-epiminooxocino[5,4-d][1,3]thiazol-2-yl}-N′-(2-hydroxy-2-methylpropyl)urea]	0.93 μm
COc1ccc2oc(N3[C@@H]4COC[C@H]3c3sc(NC(=O)NC(C)(C)CO)nc3C4)nc2c1 [Example 58, N-(1-hydroxy-2-methylpropan-2-yl)-N′-[(4S,8S)-10-(5-methoxy-1,3-benzoxazol-2-yl)-4,7,8,9-tetrahydro-5H-4,8-epiminooxocino[5,4-d][1,3]thiazol-2-yl]urea]	2.4 μm
C[C@H](CO)NC(=O)Nc1nc2c(s1)[C@@H]1COC[C@H](C2)N1c1nc2cc(Cl)ccc2o1 [Example 59, N-[(4S,8S)-10-(5-chloro-1,3-benzoxazol-2-yl)-4,7,8,9-tetrahydro-5H-4,8-epiminooxocino[5,4-d][1,3]thiazol-2-yl]-N′-[(2R)-1-hydroxypropan-2-yl]urea]	0.44 μm
[2H]C([2H])([2H])Oc1ccc2oc(N3[C@@H]4COC[C@H]3c3sc(NC(=O)NCC(C)(C)O)nc3C4)nc2c1 [Example 60, N-(2-hydroxy-2-methylpropyl)-N′-[(4S,8S)-10-{5-[(^2H3)methyloxy]-1,3-benzoxazol-2-yl}-4,7,8,9-tetrahydro-5H-4,8-epiminooxocino[5,4-d][1,3]thiazol-2-yl]urea]	1.7 μm
O=C(Nc1nc2c(s1)[C@@H]1COC[C@H](C2)N1c1cc(-c2ccc(F)cc2)on1)N[C@H]1CC[C@@H](O)CC1 [Example 61, N-{(4S,8S)-10-[5-(4-fluorophenyl)-1,2-oxazol-3-yl]-4,7,8,9-tetrahydro-5H-4,8-epiminooxocino[5,4-d][1,3]thiazol-2-yl}-N′-[(1s,4s)-4-hydroxycyclohexyl]urea]	1.9 μm
